Experiments:
Assay in all cases: agar dilution plate method, percent retardation of wood rot fungi
Type in all cases: cell-based
[1] = tested on: C. globosum (soft rot decay fungi)
Description: (§1) The efficacy of aqueous 1,2-benzisothiazolone/amine oxide solutions containing the amine oxides in Table 1 against the wood rot fungi T. versicolor (white rot fungi), G. trabeum (brown rot fungi), P. placenta (brown rot fungi), and C. globosum (soft rot decay fungi) were determined using the agar dilution plate method well known in the art. The water in the solution was evaporated to form an agar/biocide mixture and then tested. Each solution was tested at dilutions ranging from 10 to 5000 ppm of benzisothiazolone. The weight ratio of amine oxide to 1,2-benzisothiazolone was either 20:1 or 10:1 in each solution. The percent retardation of the fungi was determined by the percentage change in the diameter of the fungi on the agar plate (i.e. Percent Retardation=((Diameter of Control)−(Diameter of Treated Fungi))/(Diameter of Control)* 100%).
(§2) The efficacy of aqueous 4,5-dichloro-2-n-octyl-3-isothiazolone/amine oxide solutions containing the amine oxides in Table 2 against the wood rot fungi T. versicolor (white not fungi), G. trabeum (brown rot fungi), P. placenta (brown rot fungi), and C. globosum (soft rot decay fungi) were determined as described in Example 6.

[2] = tested on: G. trabeum (brown rot fungi)
Description: as §1, §2

[3] = tested on: P. placenta (brown rot fungi)
Description: as §1, §2

[4] = tested on: T. versicolor (white rot fungi)
Description: as §1, §2

[5] = no amine oxide, 4,5-dichloro-2-n-octyl-isothiazolone 0.5 ppm
[6] = no amine oxide, 4,5-dichloro-2-n-octyl-isothiazolone 5 ppm
[7] = no amine oxide, 4,5-dichloro-2-n-octyl-isothiazolone 50 ppm
[8] = no amine oxide, 4,5-dichloro-2-n-octyl-isothiazolone 100 ppm
[9] = no amine oxide, 4,5-dichloro-2-n-octyl-isothiazolone 250 ppm
[10] = no amine oxide, 4,5-dichloro-2-n-octyl-isothiazolone 500 ppm
[11] = no amine oxide, 4,5-dichloro-2-n-octyl-isothiazolone 750 ppm

`CCCCCCCCn1sc(Cl)c(Cl)c1=O` [4,5-dichloro-2-n-octyl-isothiazolone, 4,5-dichloro-2-n-octyl-3-isothiazolone] was tested, and the “Percent Retardation C. globosum” value [1, 5] was 63%, the “Percent Retardation C. globosum” value [1, 6] was 60% and the “Percent Retardation C. globosum” value [1, 7] was 67%. The “Percent Retardation C. globosum” value [1, 8] was 78%, the “Percent Retardation C. globosum” value [1, 9] was 89% and the “Percent Retardation C. globosum” value [1, 10] was 100%. The “Percent Retardation C. globosum” value [1, 11] was 100%, the “Percent Retardation G. trabeum” value [2, 5] was 11% and the “Percent Retardation G. trabeum” value [2, 6] was 63%. For the same compound, the “Percent Retardation G. trabeum” value [2, 7] was 83%, the “Percent Retardation G. trabeum” value [2, 8] was 85% and the “Percent Retardation G. trabeum” value [2, 9] was 87%. For the same compound, the “Percent Retardation G. trabeum” value [2, 10] was 88%, the “Percent Retardation G. trabeum” value [2, 11] was 100% and the “Percent Retardation P. placenta” value [3, 5] was 42%. For the same compound, the “Percent Retardation P. placenta” value [3, 6] was 83%, the “Percent Retardation P. placenta” value [3, 7] was 100% and the “Percent Retardation P. placenta” value [3, 8] was 100%. The “Percent Retardation P. placenta” value [3, 9] was 100%, the “Percent Retardation P. placenta” value [3, 10] was 100% and the “Percent Retardation T Versicolor” value [4, 5] was 12%. For the same compound, the “Percent Retardation T Versicolor” value [4, 6] was 51%, the “Percent Retardation T Versicolor” value [4, 7] was 82% and the “Percent Retardation T Versicolor” value [4, 8] was 87%. The “Percent Retardation T Versicolor” value [4, 9] was 87%, the “Percent Retardation T Versicolor” value [4, 10] was 88% and the “Percent Retardation T Versicolor” value [4, 11] was 100%.

From patent US6448279B1, “Isothiazolone/amine oxide wood preservatives” (Lonza Inc., priority 1999, dated 2002)
